Data on three molecules can be found in paper PMC4738305, “Metabolism and Disposition of Aditoprim in Swine, Broilers, Carp and Rats” (Scientific Reports, 2016).

Like-named read-outs stand apart in the source and are kept apart here.

The nature of data set [1]: Metabolite profiling of ADP in excreta, plasma and bile (LC-v.ARC/MS-IT-TOF). It is filed as in vivo, swine. The note with it: for percentage of the individual metabolite compared with the total concentration of ADP-related: within 6 h after dosing; for Average percentage of ADP and its metabolites in total dose: Swine, single oral 5 mg/kg b.w. ^3H-ADP. As for the experimental part: Animals (4 swine, 6 broilers, 6 carp, and 3 male and 3 female rats) were housed individually in clean, suspended wire-mesh metabolism cages, designed to separate the urine from the feces (carp were raised in individual aquaria). Each animal was weighed and assigned with a permanent identification number. A single dose of ^3 H-ADP (5 mg/kg b. w., 0.1 Ci/g) was administered via the oral gavage. Excreta were collected on ice at the pre-administration, in the period of 6, 12, and 24 h on day 1 d, and afterwards, intermittently in the period of 24 h up to 14 d. The piscine excreta were collected by changing and collecting raised water. The total volume or weight of each sample was measured and homogenized. The total radioactivity levels were determined through LSC for the recovery calculations. After the preparation, the samples were analyzed through LC/MS-IT-TOF with v. ARC radiometric detection (XenoBioticLaboratories, Inc.) for metabolite profiling. The pretreatment samples were used as controls to determine the background radioactivity or the endogenous nondrug-related ions observed within respective matrices or their extracts.
(§1) A total of 36 animals from each species (swine n = 24) were randomly assigned to six equal treatment groups and administered a single daily dose of ^3 H-ADP at 5 mg/kg b. w. (0.1 Ci/g) through oral gavage for 7 consecutive days. All the animals were housed on the basis of their group in the cages or aquaria throughout the whole study period. A group of animals was slaughtered through exsanguination under diethyl ether inhalation of anesthesia in the period of 6 h, 1, 3, 7, 14, and 21 d after the administration. The blood samples were immediately collected into the heparinized tubes and was centrifuged at 1920 × g at 4 °C for 10 min to obtain the plasma. The tissues from the heart, liver, spleen, lung, kidney, craw (broilers), stomach, intestine, fat, skin, muscle, thymus, pancreas, bile, bladder, hair (scale for carp), genital gland, adrenal glands, swim bladder (carp), brain, lymph, and bursa (broilers) were carefully excised and collected. The tissues were thoroughly rinsed with the deionized water to remove the residuary blood, blotted to dryness, and finally to perform the homogenization. In order to avoid cross-contamination the dissecting instruments were washed during the tissue procurements. The blank tissues were collected in order to provide control matrices. The total radioactivity levels in each sample were determined through LSC. The samples extracted from the plasma, bile, and tissues of the liver, kidney, muscle, and fat/skin were analyzed through LC/MS-IT-TOF and v. ARC radiometric detection for metabolite profiling. The blank samples were used as control to determine the background radioactivity or the endogenous nondrug-related ions observed within respective matrices or their extracts.
For metabolite profiling, the urine and feces samples from each animals were pooled proportionally to the excreted amount in each sampling period from 0 to 6 h, 6 h to 1 d, 1 to 3 d, 3 to 7 d, and 7 to 14 d post-dose, respectively. All samples were fully homogenized before the process. The pre-dose and blank samples served as the controls for determining the background radioactivity or the endogenous, nondrug-related ions observed within respective matrices or their extracts.
The urine samples (plasma, bile and raised water for carp) was subjected to solid-phase extraction with an Oasis MCX cartridge (3 mL, […]; Waters, Milford, MA, USA) for metabolite purification and enrichment. The pH value was adjusted to 2.8–3.2 by adding 1 M hydrochloric acid (HCl), and 2 mL of the sample was transferred into MCX cartridge, which was preconditioned with 3 mL of methanol and 3 mL of 0.1 mol/L HCl solution. The cartridge was washed with 3 mL of 0.1 mol/L HCl solution and was eluted with 5 mL of NH4OH/methanol (4:96, v:v). The effluent was concentrated to dryness under a stream of nitrogen at 40 °C. […]

Data set [2] can be described thus: Concentration and elimination of ADP and its metabolites in liver, kidney, muscle, fat/skin after oral ^3H-ADP for 7 d. It is filed as in vivo, rats. The note with it: for half-life: po; for concentration at 0.25 d / concentration at 1 d / concentration at 3 d / concentration at 7 d / concentration at 14 d: oral. As for the experimental part: as §1
The feces and tissues (2 g) were diluted with a mixture of methanol and chloroform (1:3, v:v; 2 mL/g homogenate). This procedure was carried out in a fume hood for the safety aspects. The pH value was adjusted to 9.0 with NH4OH. The mixture was vortexed and sonicated for 5 min and 10 min, respectively, and finally the samples were centrifuged at 7690 × g for 10 min. The supernatant was aspirated and then transferred into a new centrifuge tube. The obtained pellet was again subjected to the same process of vortex, ultrasonication, extraction, and centrifugation. The combined supernatant was concentrated under a stream of nitrogen in a water bath at 40 °C. The residue was reconstituted with 0.3 mL of methanol–water (1:9, v:v) before the injection into the LC-v. ARC/MS-IT-TOF system for analysis.
ADP and its metabolites in the prepared samples were determined with a v. ARC radiometric detector and a hybrid IT/TOF mass spectrometer connected to the HPLC system (Shimadzu Corp., Kyoto, Japan). The LC system was equipped with a solvent delivery pump (LC-20AD), an auto-sampler (SIL-20AC), a degasser (DGU-20 A 3), a photodiode array detector (SPD-M20A), a communication base module (CBM-20 A), and a column oven (CTO-20AC). The chromatographic separation was achieved by using an Agilent extend-C18 column (2.1 mm × 150 mm, 5 μm) with a gradient mobile phase of A (0.01% ammonia and 5 mM ammonium acetate in water) and B (methanol) at a flow rate of 0.2 mL/min. The column temperature was maintained at 35 °C. Various HPLC methods were performed because of the large number of different metabolites to be analyzed. For the porcine sample, method 1 started at 5% B and increased to 20% B over 35 min, then to 55% B by 60 min, followed by re-equilibration for another 10 min. For the remaining samples, method 2 started at 10% B and increased to 60% B over 30 min, subsequently was maintained at 60% B for an additional 10 min, and then changed to 90% B over 2 min and maintained for 2 min. Afterwards, a re-equilibration step (decreased to 10% B over 1 min and maintained at 10% B for additional 9 min) was followed. For each matrix, more than 98% of the radioactivity injected into the column was eluted during the running time of the gradient program. […]

[3] abbreviates: rat kidney, after 5 mg/kg b. w. for 7 days, read-out: t1/2 of the individual compound (converted).
The mark [4] stands for this setting: rat liver, after 5 mg/kg b. w. for 7 days, read-out: t1/2 of the individual compound (converted).
The mark [5] stands for this setting: rat, tissues (liver, kidney, muscle, fat/skin), 5 mg/kg, rats tissues, read-out: t1/2 of the individual compound, range over tissues.

With `COc1cc(Cc2cnc(N)nc2N)cc(OC)c1N(C)C` [A0, 2,4-Diamino-5-[4-(dimethylamino)-3,5-dimethoxybenzyl] pyrimidine], the “percentage of the individual metabolite compared with the total concentration of ADP-related” value (“percentage of the individual metabolite” for short) in data set [1] (Swine Feces) is reported as 89.1%; in data set [1] (Swine Plasma), 53.0%; in data set [1] (Swine Urine) it was 42.3%. For the same molecule, the “Average percentage of ADP and its metabolites in total dose” value (from here on “Average percentage”) in data set [1] (Feces) was found to be 16.0%; in data set [1] (Urine), 33.4%. Also, the “share of sample radioactivity” value in data set [1] (swine urine, period of 7–14 d (as the text reads), single oral dose) is “approximately 90%”. Further, the half-life was 62.2 h in data set [2] (rat fat, after 5 mg/kg b. w. for 7 days, read-out: t1/2 of the individual compound (converted)); 76.8 h in data set [2] (setting [3]); 100 h in data set [2] (setting [4]); 70.8 h in data set [2] (rat muscle, after 5 mg/kg b. w. for 7 days, read-out: t1/2 of the individual compound (converted)); 62.2 to 100 h in data set [2] (setting [5]). Besides, the concentration at 0.25 d in data set [2] (rat, fat, 5 mg/kg b. w.) is 290 ± 100 ng/g; in data set [2] (rat, kidney, 5 mg/kg b.w.), 3800 ± 1550 ng/g; in data set [2] (rat, liver, 5 mg/kg b. w.), 6140 ± 1890 ng/g; in data set [2] (rat, muscle, 5 mg/kg b.w.), 1020 ± 480 ng/g. The concentration at 1 d in data set [2] (rat, fat, 5 mg/kg b. w.) worked out at 150 ± 30 ng/g; in data set [2] (rat, kidney, 5 mg/kg b.w.) it was 1130 ± 430 ng/g; in data set [2] (rat, liver, 5 mg/kg b. w.) it was 2830 ± 520 ng/g; in data set [2] (rat, muscle, 5 mg/kg b.w.), 700 ± 210 ng/g. Moreover, the concentration at 3 d was determined as 80 ± 10 ng/g in data set [2] (rat, fat, 5 mg/kg b. w.); 590 ± 110 ng/g in data set [2] (rat, kidney, 5 mg/kg b.w.); 1020 ± 270 ng/g in data set [2] (rat, liver, 5 mg/kg b. w.); 380 ± 90 ng/g in data set [2] (rat, muscle, 5 mg/kg b.w.). Also, the concentration at 7 d in data set [2] (rat, fat, 5 mg/kg b. w.) was 30 ng/g; in data set [2] (rat, kidney, 5 mg/kg b.w.) it was 350 ± 80 ng/g; in data set [2] (rat, liver, 5 mg/kg b. w.) it was 560 ± 120 ng/g; in data set [2] (rat, muscle, 5 mg/kg b.w.) it was 170 ± 40 ng/g. Further, the concentration at 14 d turned out to be 60 ± 10 ng/g in data set [2] (rat, kidney, 5 mg/kg b.w.) and 170 ± 30 ng/g in data set [2] (rat, liver, 5 mg/kg b. w.). In data set [2] (rats liver, kidney, muscle, fat, over the sampling times), the “share of the sample radioactivity in the detected tissues” value is recorded as “more than 42%”.
Take `CNc1c(OC)cc(Cc2cnc(N)nc2N)cc1OC` [A1, N-monodesmethyl-ADP]: the entries for the “percentage of the individual metabolite” value in data set [1] (Swine Feces), in data set [1] (Swine Plasma) and in data set [1] (Swine Urine) were 9.7%, 23.7% and 11.4%, respectively. The “Average percentage” value in data set [1] (Feces) is 2.9%; in data set [1] (Urine) it was 13.3%. For the same molecule, the values for the half-life in data set [2] (setting [3]), in data set [2] (setting [4]) and in data set [2] (setting [5]) were 50.6 h, 64.6 h and 50.6 to 64.6 h, respectively. The concentration at 0.25 d in data set [2] (rat, fat, 5 mg/kg b. w.) came to 70 ± 20 ng/g; in data set [2] (rat, kidney, 5 mg/kg b.w.), 2650 ± 970 ng/g; in data set [2] (rat, liver, 5 mg/kg b. w.) it was 1940 ± 580 ng/g; in data set [2] (rat, muscle, 5 mg/kg b.w.), 250 ± 100 ng/g. Also, the concentration at 1 d was found to be 320 ± 120 ng/g in data set [2] (rat, kidney, 5 mg/kg b.w.); 390 ± 90 ng/g in data set [2] (rat, liver, 5 mg/kg b. w.); 140 ± 30 ng/g in data set [2] (rat, muscle, 5 mg/kg b.w.). In addition, the concentration at 3 d was 120 ± 20 ng/g in data set [2] (rat, kidney, 5 mg/kg b.w.) and 180 ± 40 ng/g in data set [2] (rat, liver, 5 mg/kg b. w.). Besides, the concentration at 7 d in data set [2] (rat, kidney, 5 mg/kg b.w.) is 40 ± 10 ng/g; in data set [2] (rat, liver, 5 mg/kg b. w.) it was 80 ± 10 ng/g.
For `COc1cc(Cc2cnc(N)nc2N)cc(OC)c1N` [A2, N-didesmethyl-ADP], the figures for the “percentage of the individual metabolite” value in data set [1] (Swine Feces), in data set [1] (Swine Plasma) and in data set [1] (Swine Urine) were 1.1%, 15.0% and 11.8%, respectively. Further, the “Average percentage” value in data set [1] (Feces) is recorded as 0.5%; in data set [1] (Urine), 11.3%. Also, the results for the half-life in data set [2] (setting [3]) and in data set [2] (setting [4]) were 16.8 h and 38.6 h, respectively. In addition, the concentration at 0.25 d was 370 ± 130 ng/g in data set [2] (rat, kidney, 5 mg/kg b.w.); 230 ± 60 ng/g in data set [2] (rat, liver, 5 mg/kg b. w.); 40 ± 10 ng/g in data set [2] (rat, muscle, 5 mg/kg b.w.). For the same molecule, the concentration at 1 d in data set [2] (rat, kidney, 5 mg/kg b.w.) was 120 ± 30 ng/g; in data set [2] (rat, liver, 5 mg/kg b. w.), 120 ± 20 ng/g. Moreover, the concentration at 3 d turned out to be 20 ng/g in data set [2] (rat, kidney, 5 mg/kg b.w.) and 60 ± 20 ng/g in data set [2] (rat, liver, 5 mg/kg b. w.).
